Data set [1] is classed as physicochemical. As for the experimental part:
All animal handling was approved by and done in accordance with the guidelines and requirements of the University of Vermont Institutional Animal Care Use Committee. Adult male Sprague-Dawley rats (mycoplasma free; 200 g) were purchased from Charles River (Quebec, Canada) and housed in an air-conditioned (23+1 degree C.) room with lights on for 12 hours daily (starting at 6:00 a.m.) in the University of Vermont Animal Facility. Rats were housed singly in regular cages with free access to Purina Rat Chow (RMH 3000) and water for at least five days prior to surgery. Stereotactic surgery was used to implant chronic indwelling stainless steel cannulae into the third ventricle of the brain under fentanyl/droperidol anesthesia. Coordinates for cannula placement were obtained from the Konig Klippel stereotactic surgery atlas; with the nose bar 2.4 mm below the intraaural line and the vertical micrometer gantry tilted 9 degrees towards the animal, the coordinates were 4.9 mm dorsal to the intraaural line, 5 mm anterior to the intraaural line and 1.1 mm lateral to the midline. A minimum of 5 days later, animals were injected icv with beta-GPA (which was dissolved in saline at 50 degrees C. and the pH adjusted to 7.2-7.4 with dilute HCl) or other experimental compounds at the indicated concentrations. […] Food intakes were measured using powdered rat chow with daily weigh-backs as indicated. […]

A further data set relates to Fos (c-fos protein). The experiment in a line: Fos immunohistochemistry of hypothalamic sections 4 hours after icv injection. Format: in vivo, rat. The note with it: 4 hours after icv 2 mg per rat, especially around the III ventricles. As for the experimental part:
In experiments involving immunohistochemistry, animals were injected icv with beta-GPA or with vehicle. Four hours after injection, animals were anesthetized with halothane and perfused through the left ventricle of the heart, initially with oxygenated Krebs buffer and then with ˜350 ml of 4% paraformaldehyde in 0.1M NaCl, pH 7.4 phosphate buffered saline (PBS). Brains were extracted from the skull, hypothalamic blocks dissected (by coronal cuts anterior and posterior to hypothalamic landmarks) and post-fixed in 4% paraformaldehyde solution at 4 degrees C. overnight. The following day, the blocks were transferred to 30% sucrose and incubated overnight at 4 degrees C. After freezing in Optimum Cutting Temperature (OCT) compound (Sakura, Japan), blocks were sectioned coronally at 40 um on a cryostat and sections individually floated in multi-well dishes filled with PBS. Sections were treated for 30 minutes with 0.4% Triton detergent in potassium PBS to aid in antibody penetration. Primary antibodies were added, the plates shaken gently for 1 hour at room temperature, then incubated at 4 degrees C. for 72 hours. Sections were then brought to room temperature while shaking and the primary antibody solution was removed by washing 3 times with PBS buffer. After removal of the last wash, the secondary antibody solution was added and the plates incubated for 2 hours at room temperature in the dark. Removal of the second antibody was achieved by washing three times with PBS buffer prior to mounting on subbed slides. They were allowed to dry, rewetted with PBS buffer and cover-slipped with Citifluor (Ted Pella, Reading, Calif.).
Fos studies were performed using indirect fluorescence visualization. The method utilized rabbit c-Fos-AB5 (1:2,000; Oncogene Research Products, Cambridge, Mass.) with goat anti-rabbit Cy3 (1:500; Jackson Immuno Research Laboratories, West Grove, Pa.) as the secondary antibody. […] Staining observed in experimental tissue was compared to that observed from experiment-matched negative controls. […] Immunoreactive Fos (Fos IR) was quantified by capturing images at 10× using MagnaFire 2.0 Software. These images were imported into the Metamorph 6.1 Software package and density of staining measured using Hue Saturation Intensity. Regions outlining nuclei were hand drawn with an electric pen and the total areas and stained areas measured to yield percentages of total areas with specific Fos-IR. The values for left and right dorsomedial nuclei in each rat were averaged, and the averages used to calculate means. In the case of the III ventricle, the entire image was used for quantification prior to calculating the percentage of the area with Fos-IR.

Data set [2] can be described thus: Body weight and food intake after icv administration of beta-GPA in rats. Format: in vivo, rat. As for the experimental part: All animal handling was approved by and done in accordance with the guidelines and requirements of the University of Vermont Institutional Animal Care Use Committee. Adult male Sprague-Dawley rats (mycoplasma free; 200 g) were purchased from Charles River (Quebec, Canada) and housed in an air-conditioned (23+1 degree C.) room with lights on for 12 hours daily (starting at 6:00 a.m.) in the University of Vermont Animal Facility. Rats were housed singly in regular cages with free access to Purina Rat Chow (RMH 3000) and water for at least five days prior to surgery. Stereotactic surgery was used to implant chronic indwelling stainless steel cannulae into the third ventricle of the brain under fentanyl/droperidol anesthesia. Coordinates for cannula placement were obtained from the Konig Klippel stereotactic surgery atlas; with the nose bar 2.4 mm below the intraaural line and the vertical micrometer gantry tilted 9 degrees towards the animal, the coordinates were 4.9 mm dorsal to the intraaural line, 5 mm anterior to the intraaural line and 1.1 mm lateral to the midline. A minimum of 5 days later, animals were injected icv with beta-GPA (which was dissolved in saline at 50 degrees C. and the pH adjusted to 7.2-7.4 with dilute HCl) or other experimental compounds at the indicated concentrations. Control animals received equal volumes of vehicle. Volumes of icv injections never exceeded 10 ul per animal and were administered over 5-10 seconds. In some experiments, animals received two or more icv injections on the same or different days. Measures of body weight were made daily with a digital balance with a 6 second integration period to minimize the effects of animal movement. For experiments involving measurement of food intake, after stereotactic surgery animals were housed in individual Nalgene metabolic cages and given additional time for acclimation to the cage and feeding system. Food intakes were measured using powdered rat chow with daily weigh-backs as indicated.

In data set [3] the test system is creatine transporter (CrT) mRNA. The data set is described as follows: Real-Time PCR of creatine transporter mRNA in hypothalami of beta-GPA-treated rats. The note with it: hypothalamus, normalized to L32 mRNA, not statistically significant, FIG. 4. The data set is classed as in vivo, rat. Here is the method: RNA was purified with […] (Promega) at 37 degrees C. for 30 min. The first strand of cDNA was synthesized by adding 1 ug of purified RNA from each sample to 20 ul containing MMLV reverse transcriptase (Invitrogen Life Tech). Creatine transporter (CrT) gene expression was further quantatified by Real-Time PCR using sense primer: 5′GGTAAGGGTGCAA GCCTTTG′ (SEQ ID NO: 1); antisense primer: 5′[…]-3′ (SEQ ID NO:2) and TaqMan probe: 5′[…]-3′ (SEQ ID NO: 3) (MMG-Biotech). The rat ribosomal protein L32 gene was used as a loading control. 1 ul of each cDNA sample derived from the 20 ul reverse transcription reaction and 1 ug RNA template was mixed with 24 ul master mixture (Perkin Elmer) in a 96-well TaqMan plate. The PCR was run in an ABI prism 7700 thermocycler (Applied Biosystems) at 50 degrees C. for 2 min and 95 degrees C. for 10 min, followed by 95 degrees C. for 15 sec and 60 degrees C. for 1 min for 40 cycles. The data were analyzed using software supplied with the ABI prism 7700.
In general terms: Real-time PCR tracks product formation cycle by cycle.

The mark [4] stands for this setting: icv 1 mg, 2 mg or 3 mg per animal, FIG. 2.
The mark [5] stands for this setting: icv 2 mg/rat, single dose, FIG. 1.

Turning to `N=C(N)NCCC(=O)O` [beta-GPA, 3-guanidopropionic acid], in data set [1], the “usability of a five-fold greater icv dose (10 mg)” value is given as “not usable because of solubility dictates”. In addition, the “Fos IR” value in the data set on Fos (c-fos protein) is listed as “increased”. Moreover, in data set [2] (setting [4]), the body weight entry is “decreased in a dose-dependent fashion” and the food intake result is recorded as “decreased in a dose-dependent fashion”. Moreover, in data set [2] (icv 2 mg/rat, single dose), the “time until body weight and food intake returned to values indistinguishable from vehicle-treated animals” value was “four”. In addition, in data set [2] (setting [5]), the body weight entry is recorded as “modest decreases” and the food intake entry was “modest decreases”. Further, the “effect of icv dose (body weight and food intake)” value in data set [2] (icv, 0.04 mg, five-fold lower dose, dose-ranging study) is “without effect”. The “magnitude of body weight and food intake effects after a second identical dosage” value in data set [2] (second icv dose seven days after the first, FIG. 2) is reported as “enhanced considerably”. Also, the “relative units of CrT gene expression versus vehicle-treated animals” value in data set [3] is given as “slight decrease”.

For the origin of these results see patent publication US20090305225A1, “Inhibition of Creatine Uptake to Promote Weight Loss” (priority 2005, published 2009).
